Consider 1 compound from paper PMC10824269 (Journal of the American Chemical Society, 2021).

Structures are written as SMILES.

The assay has as its target GsTyDC/DDC (Gloriosa superba, UniProt A0A7D5Q853). Format: cell-based. The conditions noted are these: leaves of N. benthamiana.

Turning to `N[C@@H](Cc1ccc(O)c(O)c1)C(=O)O` [L-DOPA], the “LC-MS, transient expression in N. benthamiana” value is recorded as “GsTyDC/DDC is capable of acting on act on either L-Tyr or L-DOPA (Figure S15)”.
